Molecules are shown by their SMILES.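 These data come from cells grown in 96-well plates and exposed to compound for 48 hours at five concentrations. GI50 is the concentration that inhibits growth by half. TGI: concentration producing complete growth inhibition.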

Assay in all cases: NCI-60 cell line screen, 48 h
For assay [1], the system named is SK-MEL-28 melanoma.
The test system of assay [2] is 786-0 renal.
Assay [3] has as its system CCRF-CEM leukemia.
Assay [4] relates to NCI-H522 lung.
Assay [5] deals with SK-MEL-5 melanoma.
Assay [6] deals with HOP-62 NSCLC.
Assay [7] deals with SK-OV-3 ovarian.
Assay [8] has as its system HOP-92 NSCLC.
The subject of assay [9] is COLO 205 colon.
Assay [10] deals with CAKI-1 renal.

Regarding `C#COc1cccc(Nc2ncnc3cc(NC(=O)[C@@H](C)Cl)ccc23)c1`, the GI50 in assay [1] was 14 µM; in [2] it was 19.3 µM; in assay [3], 7.45 µM; in assay [4], 3.96 µM; in [5], 4.09 µM; in [6], 8.18 µM. For the same molecule, the GI50 is 19.6 µM in assay [7], above 62.5 µM in assay [8], 5.3 µM in [9] and 10.2 µM in [10]. The TGI in [1] is above 62.5 µM; in assay [2] it was above 62.5 µM; in [3], above 62.5 µM; in assay [4], 40.8 µM; in assay [5], 32.8 µM; in assay [6] it was above 62.5 µM. Also, the TGI in assay [7], in [8], in assay [9] and in assay [10] was above 62.5 µM each time.

As for `O=c1[nH]c(=S)[nH]c(O)c1/C=C1\C=Nc2ccccc21`, the GI50 in [1] is 6.69 µM; in assay [2], 6.47 µM; in [3], 2.12 µM; in [4] it was 16.9 µM; in [5] it was 11.7 µM; in assay [6], 3.66 µM. In addition, the GI50 in assay [7] is 15.7 µM; in assay [8], 3.36 µM; in assay [9] it was 3.77 µM; in [10], 3.61 µM. Also, the TGI in assay [1] was found to be 48.3 µM; in assay [2] it was 22.2 µM; in assay [3], 6.47 µM; in assay [4], 54.4 µM; in [5] it was 27.2 µM; in assay [6] it was 38.4 µM. For the same molecule, the TGI in assay [7] was found to be 81.5 µM; in assay [8] it was 27.3 µM; in [9] it was 18.3 µM; in [10], 20.3 µM.

Turning to `CCN(CC)CCCC(Nc1c2ccc(Cl)cc2nc2ccc(OC)cc12)c1ccc(Cl)cc1` (stereo not given), the GI50 in [1] was 1.34 µM; in assay [2], 1.29 µM; in [3], 0.53 µM; in assay [4], 1.46 µM; in [5] it was 1.25 µM; in assay [6], 1.61 µM. The GI50 in assay [7] is 2.05 µM; in assay [8], 1.15 µM; in [9], 1.31 µM; in assay [10] it was 1.17 µM. For the same molecule, the TGI in [1] worked out at 2.9 µM; in [2], 2.91 µM; in assay [3], 2.07 µM; in assay [4], 3.09 µM; in assay [5] it was 2.54 µM; in [6], 3.14 µM. The TGI in assay [7] amounted to 3.89 µM; in assay [8], 2.81 µM; in [9], 2.87 µM; in assay [10], 2.44 µM.

For `OCC1OC(OC2(CO)OC(CO)C(O)C2O)C(O)C(O)C1O` (stereo not given), the GI50 in [1], in assay [2], in assay [3], in assay [4], in assay [5] and in assay [6] was above 100 µM throughout. Also, the GI50 in assay [7], in assay [8], in assay [9] and in [10] was above 100 µM in each case. The TGI in [1], in assay [2], in assay [3], in assay [4], in assay [5] and in assay [6] was above 100 µM throughout. Also, the TGI in [7], in assay [8], in assay [9] and in assay [10] was above 100 µM in each case.

On to `N#CN1CC[C@H](C(=O)Nc2ncc(-c3ccccc3)s2)C1`, for which the GI50 in assay [1] is 1.09 µM; in assay [2] it was 0.404 µM; in assay [3], 0.271 µM; in assay [4] it was 0.205 µM; in [5] it was 0.829 µM; in [6] it was 1.37 µM. Further, the GI50 in assay [7] is 2.2 µM; in assay [8], 0.662 µM; in assay [9], 0.195 µM; in assay [10], 1.65 µM. In addition, the TGI in assay [1] was 3.01 µM; in assay [2], 2.48 µM; in assay [3], above 100 µM; in assay [4], 0.547 µM; in assay [5], 3.58 µM; in assay [6], 4.21 µM. Also, the TGI in assay [7] turned out to be 13.8 µM; in [8] it was 4.25 µM; in assay [9], 0.449 µM; in assay [10], 4.26 µM.

With `C[n+]1cn(CC(=O)c2ccccc2)c(C(N)=O)c1N`, the TGI in assay [1], in assay [2], in [3], in assay [4], in assay [5] and in assay [6] was above 100 µM in each case. The TGI in [7], in assay [8], in [9] and in assay [10] was above 100 µM in each case.

With `N#CC(C(=O)Nc1ccccc1)C1=C(Cl)C(=O)c2ccccc2C1=O` (stereo not given), the TGI in assay [1] was 32.1 µM; in assay [2], 27.7 µM; in assay [3] it was above 100 µM; in assay [4], 29.3 µM; in [5], 30.2 µM; in [6], 33.6 µM. In addition, the TGI in assay [7] is above 100 µM; in assay [8], 27.9 µM; in [9], 37.3 µM; in assay [10], 41.2 µM.

As for `COc1ccc(N(CC(=O)O)N=O)cc1`, the TGI in assay [1], in assay [2], in [3], in assay [4], in [5] and in assay [6] was above 100 µM in each case. The TGI in assay [7], in assay [8], in [9] and in assay [10] was above 100 µM throughout.

With `O=[N+]([O-])/C=C/c1ccc2ccccc2c1`, the TGI in [1] is 4.65 µM; in assay [2], above 20.4 µM; in assay [3] it was above 100 µM; in [4], 33.1 µM; in assay [5] it was 13.3 µM; in [6] it was above 51.5 µM. Moreover, the TGI in assay [7] came out at 9.22 µM; in [8] it was 21.1 µM; in [9] it was 5.97 µM; in [10], 25.7 µM.

The values above are taken from PubChem BioAssay (NCI).
